The values below come from patent US20060194807A1, “Di-aryl substituted pyrazole modulators of metabotropic glutamate receptor-5” (priority 2003, published 2006).

In this assay the target is T1, hmGluR5a receptor (Homo sapiens, UniProt P41594).
T1 construct: expressed in transfected cells; host or cells: mouse fibroblast Ltk- cells (hmGluR5a/L38-20 cell line)
Description: Calcium flux assay (fura-2, glutamate-evoked [Ca2+]i). Format: cell-based. The following applies: hmGluR5a/L38-20 mouse fibroblast Ltk- cells; 10 μM glutamate (EC80); read-out: mGluR5 inhibitory activity, IC50. How it is done: The compounds of this invention were tested against the hmGluR5a receptor stably expressed in mouse fibroblast Ltk-cells (the hmGluR5a/L38-20 cell line) and activity was detected by changes in [Ca^++]i, measured using the fluorescent Ca^++-sensitive dye, fura-2. InsP assays were performed in mouse fibroblast Ltk^− cells (LM5a cell line) stably expressing hmGluR5a. The assays described in International Patent Publication WO 0116121 can be used.
The activity of compounds was examined against the hmGluR5a receptor stably expressed in mouse fibroblast Ltk− cells (the hmGluR5a/L38 cell line). See generally Daggett et al., Neuropharmacology 34:871-886 (1995). Receptor activity was detected by changes in intracellular calcium ([Ca^2+]i, measured using the fluorescent calcium-sensitive dye, fura-2. The hmGluR5a/L38-20 cells were plated onto 96-well plates, and loaded with 3 µM fura-2 for 1 h. Unincorporated dye was washed from the cells, and the cell plate was transferred to a 96-channel fluorimeter (SIBIA-SAIC, La Jolla, Calif.) which is integrated into a fully automated plate handling and liquid delivery system. Cells were excited at 350 and 385 nm with a xenon source combined with optical filters. Emitted light was collected from the sample through a dichroic mirror and a 510 nm interference filter and directed into a cooled CCD camera (Princeton Instruments). Image pairs were captured approximately every is, and ratio images were generated after background subtraction. After a basal reading of 20s, an EC80 concentration of glutamate (10 μM) was added to the well, and the response evaluated for another 60s. The glutamate-evoked increase in [Ca′]i in the presence of the screening compound was compared to the response of glutamate alone (the positive control).
A general note: Calcium assays in cells follow changes in intracellular calcium, usually with a dye or a luminescent sensor.

The structures appear in SMILES notation. Counter-ions that a name gives are not always drawn.

T1 sequence (P41594 21-1180 isoform P41594-2 limits assumed): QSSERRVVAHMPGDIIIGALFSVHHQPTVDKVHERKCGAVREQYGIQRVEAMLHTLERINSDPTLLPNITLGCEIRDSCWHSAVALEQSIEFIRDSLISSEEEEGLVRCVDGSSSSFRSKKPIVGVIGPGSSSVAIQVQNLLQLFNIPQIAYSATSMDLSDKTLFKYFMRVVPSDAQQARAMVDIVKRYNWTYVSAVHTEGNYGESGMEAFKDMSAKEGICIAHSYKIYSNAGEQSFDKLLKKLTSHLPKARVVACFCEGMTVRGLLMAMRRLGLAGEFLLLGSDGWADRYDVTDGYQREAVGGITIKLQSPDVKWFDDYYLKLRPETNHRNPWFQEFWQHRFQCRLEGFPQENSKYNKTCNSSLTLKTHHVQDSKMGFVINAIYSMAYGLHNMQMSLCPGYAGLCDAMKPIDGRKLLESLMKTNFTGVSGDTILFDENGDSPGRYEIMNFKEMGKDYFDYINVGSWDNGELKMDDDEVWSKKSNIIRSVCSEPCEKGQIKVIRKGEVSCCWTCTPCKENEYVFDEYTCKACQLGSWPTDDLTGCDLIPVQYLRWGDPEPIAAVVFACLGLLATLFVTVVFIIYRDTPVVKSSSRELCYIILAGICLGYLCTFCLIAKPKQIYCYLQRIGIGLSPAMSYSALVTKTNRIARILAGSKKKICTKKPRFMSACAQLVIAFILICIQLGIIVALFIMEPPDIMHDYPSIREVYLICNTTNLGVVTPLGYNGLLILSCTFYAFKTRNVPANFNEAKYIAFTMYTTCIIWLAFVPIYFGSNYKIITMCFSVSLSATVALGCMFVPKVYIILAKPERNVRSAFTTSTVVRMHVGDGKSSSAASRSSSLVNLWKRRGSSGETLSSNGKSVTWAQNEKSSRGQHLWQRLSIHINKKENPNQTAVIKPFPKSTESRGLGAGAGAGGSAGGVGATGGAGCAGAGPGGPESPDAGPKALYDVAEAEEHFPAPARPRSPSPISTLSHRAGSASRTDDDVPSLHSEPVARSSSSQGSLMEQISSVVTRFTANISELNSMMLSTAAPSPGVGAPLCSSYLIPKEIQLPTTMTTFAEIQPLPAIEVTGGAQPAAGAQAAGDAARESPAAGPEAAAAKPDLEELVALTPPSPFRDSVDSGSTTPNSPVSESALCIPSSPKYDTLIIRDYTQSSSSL

For orientation: IC50 means the concentration at which inhibition is half-maximal. Turning to `Clc1cc(-c2cccnc2)cc(-n2cc(-c3ccccn3)cn2)c1` [Example 1, 2-[1-(3-chloro-5-pyridin-3-ylphenyl)-1H-pyrazol-4-yl]pyridine], the IC50 is below 2000 nM.
As for `Fc1cc(-c2nn[nH]n2)cc(-n2ccc(-c3ccccn3)n2)c1` [Example 2, 2-{1-[3-fluoro-5-(2H-tetraazol-5-yl)phenyl]-1H-pyrazol-3-yl}pyridine], the IC50 is below 2000 nM.
For the compound `Clc1cc(-c2cccnc2)cc(-c2cnn(-c3ccccn3)c2)c1` [Example 3, 2-[4-(3-chloro-5-pyridin-3-ylphenyl)-1H-pyrazol-1-yl]pyridine], the IC50 is below 2000 nM.
Turning to `c1ccc(-c2cnn(-c3cccc(-c4cccnc4)c3)c2)nc1` [Example 4], the IC50 is below 2000 nM.
Take `c1ccc(-c2cccc(-n3cc(-c4ccccn4)cn3)c2)nc1` [Example 5]: the IC50 was below 2000 nM.
For `c1ccc(-c2cccc(-n3cc(-c4ccccn4)cn3)c2)cc1` [Example 6] the value was below 2000 nM.
Consider `COc1cc(-c2cnn(-c3ccccn3)c2)ccc1-c1ccccn1` [Example 7], for which the IC50 was below 2000 nM.
For the compound `c1ccc(-c2cnn(-c3cccc(-c4cccnc4)n3)c2)nc1` [Example 8, 6-(4-pyridin-2-yl-1H-pyrazol-1-yl)-2,3′-bipyridine], the IC50 was above 2000 nM.
The figure for `c1ccc(-c2ccc(-n3ccc(-c4ccccn4)n3)cc2)cc1` [Example 9, 2-(1-biphenyl-4-yl-1H-pyrazol-3-yl)-pyridine hydrochloride] is above 2000 nM; for `c1ccc(-c2cnn(-c3cccc(-c4ccncc4)c3)c2)nc1` [Example 10] it is above 2000 nM.
For the compound `c1ccc(-c2ccc(-n3cc(-c4ccccn4)cn3)cc2)nc1` [Example 11], the IC50 was above 2000 nM.
Turning to `c1ccc(-c2cnn(-c3ccc(-c4cccnc4)cc3)c2)nc1` [Example 12], the IC50 is above 2000 nM.
Turning to `Cc1ccncc1-c1cc(F)cc(-c2cnn(-c3ccccn3)c2)c1` [Example 13], the IC50 is above 2000 nM.
For `Clc1cc(-c2cnn(-c3ccccn3)c2)cc(-n2ccc3ccncc32)c1` [Example 14], the IC50 was above 2000 nM.
The figure for `Fc1cc(-c2cnn(-c3ccccn3)c2)ccc1-c1ccccn1` [Example 15] is above 2000 nM; for `c1ccc(-c2ccc(-n3cc(-c4ccccn4)cn3)cc2)cc1` [Example 16] it is above 2000 nM; for `c1ccc(-c2ccccc2-n2cc(-c3ccccn3)cn2)cc1` [Example 17] it is above 2000 nM.
Take `c1ccc(-c2ccccc2-n2cc(-c3ccncn3)cn2)cc1` [Example 18]: the IC50 was above 2000 nM.
For `c1ccc(-c2cccc(-n3cc(-c4ccncn4)cn3)c2)cc1` [Example 19], the IC50 was above 2000 nM.
As to `c1ccc(-c2cnn(-c3ccc(C4CCCCC4)cc3)c2)nc1` [Example 20], the IC50 was above 2000 nM.
For `c1cc(-c2cnn(-c3ccc(C4CCCCC4)cc3)c2)ncn1` [Example 21] the value was above 2000 nM.
`c1ccc2nc(-c3cnn(-c4ccc(C5CCCCC5)cc4)c3)ccc2c1` [Example 22]: the IC50 is above 2000 nM.
The figure for `c1ccc2nc(-c3cnn(-c4ccc(C5CCCCC5)cc4)c3)cnc2c1` [Example 23] is above 2000 nM; for `Cc1cc(-c2cnn(-c3ccc(C4CCCCC4)cc3)c2)nc2ccccc12` [Example 24] it is above 2000 nM.
The figure for `c1ccc(-c2ccc(-n3cc(-c4ccncn4)cn3)cc2)cc1` [Example 25] is above 2000 nM; for `Cc1cc(-c2cnn(-c3ccc(N4CCNC4=O)cc3)c2)nc2ccccc12` [Example 26] it is above 2000 nM.
The figure for `CN1CCN(c2ccc(-n3cc(-c4ccncn4)cn3)cc2)C1=O` [Example 27] is above 2000 nM.
Regarding `CN1CCN(c2ccc(-n3cc(-c4ccc5ccccc5n4)cn3)cc2)C1=O` [Example 28], the IC50 was above 2000 nM.
In the case of `CN1CCN(c2ccc(-n3cc(-c4cnc5ccccc5n4)cn3)cc2)C1=O` [Example 29], the IC50 is above 2000 nM.
For the compound `Cc1cc(-c2cnn(-c3ccc(N4CCN(C)C4=O)cc3)c2)nc2ccccc12` [Example 30], the IC50 was above 2000 nM.
`c1ccc(-c2cccc(-n3cc(-c4ccccn4)cn3)c2)cc1` [Example 31]: the IC50 was above 2000 nM.
The figure for `c1ccc(-c2cccc(-c3cnn(-c4ccccn4)c3)c2)cc1` [Example 33] is above 2000 nM.
